{"source": "patent US9782429B2", "about": "“Formulation having mobilizing activity” (GENTIUM SPA, priority 2000, dated 2017)", "tested_on": "white blood cells (WBC)", "assay": "Effect of G-CSF and/or defibrotide on the amount of white blood cells in murine blood", "format": "in vivo, BALB/c mice", "conditions": "mice, IP injection, 5 days treatment; FIG. 1", "method": "This experiment was carried out to evaluate the effect of the administration of G-CSF and/or defibrotide (DEF) on the amount of white blood cells (WBC) present in murine blood. BALB/c mice from 6 to 8 weeks old and having a body weight of from 20 to 25 g were subjected to intraperitoneal (IP) injections of G-CSF (5 μg/mouse/day), DEF (1 mg/mouse/day), or a combination of G-CSF (5 μg/mouse/day) and increasing doses of DEF (1, 10, 15 mg/mouse/day). A saline solution, buffered to 0.1%, of […] (PBS/MSA) was administered by IP injection to the control mice which had not received G-CSF and/or DEF. The mice were treated for 5 days and sacrificed after 3 or 5 days of treatment, or 3 days after therapy had ceased. The following symbols were used to represent each group of mice: G-CSF (▪) (n=24), DEF 1 (◯) (n=3), G-CSF+DEF 1 (♦) (n=13), G-CSF+DEF 10 (▴) (n=6), G-CSF+DEF 15 (●) (n=23). The mean white blood cell count in PBS/MSA in the control mice was 2.87±0.2×10^6/ml of blood; the data ate expressed as mean± standard error of the mean (SEM)."}
{"substance": "defibrotide", "values": [{"measurement": "amount of white blood cells in circulation in murine blood", "result": "does not have a positive influence"}]}
